Positions of bridges follow the written chain, without caps; N, C: chain ends. Non-standard residues stand in square brackets, D forms with d. Residues, ends and D or L forms follow the SMILES beside them. Orn = NCCC[C@H](N)C(=O)O; Mpa = O=C(O)CCS
test system: B cell; assay: Cytotoxicity screening of chemical probes in isolated B cell assay. Data is normalized to DMSO control, the cell viability average of replicates are reported. Reduction of ATP level more than 20% indicate compromised cell health status.; settings: human, 0.1 µM

| SMILES | Cell Viability |
| --- | --- |
| COCCOc1nc(-c2ccc(Cl)nc2)nc2c1CN(C(=O)c1ncn3ccccc13)CC2 [THPP-1] | 97.9791% |
| O=S(=O)(NC1CCC(c2cc(F)ccc2F)(S(=O)(=O)c2ccc(Cl)cc2)CC1)C(F)(F)F (centres undefined) [MRK-560] | 103.093% |
| CN(C)C(=O)Cn1cc(-c2nc([C@@](C)(c3ccc(-c4cnc(N)nc4)cc3)C3CC3)no2)cn1 [BI 665915] | 103.286% |
| Cc1cc(Nc2nccc(C)n2)cc(-c2cnc([C@@]3(O)CC[C@H](C(=O)O)C(C)(C)C3)s2)c1 [MRL-SYKi] | 97.9587% |
| Cc1cc(C)c(-n2ccn3nc(-c4cccnc4)cc23)cc1NC(=O)c1cc(C#N)cc(S(F)(F)(F)(F)F)c1 [BAY-826] | 99.8561% |
| CS(=O)(=O)N1CCCC(NC(=O)[C@H](CCC2CCCCC2)NC(=O)c2ccc(CNC(=O)c3cnc4ccccn34)cc2)C1 (some centres undefined) [SR-302] | 99.1038% |
| CCCCN(CCCC)C(=O)CN1C[C@H](c2cc(OC)c3c(c2)OCO3)[C@@H](C(=O)O)[C@@H]1CC(C)(C)CCC.Cc1ccc(S(=O)(=O)O)cc1 | 100.019% |
| CCOC(=O)c1cc2cc(-c3cc(C(=O)NCc4ccc(C(=O)O)cc4)nn3C)ccc2[nH]1 [BI 4394] | 99.7292% |
| CNC(=O)c1ccc(Nc2ncc(C(F)(F)F)c(NCc3nccnc3N(C)S(C)(=O)=O)n2)cc1 [DEFACTINIB] | 103.534% |
| CNC(=O)Nc1ccc2c(c1)CC[C@@]21OC(=O)N(CC(=O)N(Cc2ccc(F)cc2)[C@@H](C)C(F)(F)F)C1=O [A-485] | 92.4439% |

same assay, conditions: human, 1 µM

| SMILES | Cell Viability |
| --- | --- |
| Cc1cc(C)cc([C@@H]2c3cc(C)ccc3NC(=O)CN2C(=O)c2ccc(Br)s2)c1 | 95.4438% |
| CCCCC(=O)N(Cc1ccc(-c2ccccc2-c2nnn[nH]2)cc1)[C@H](C(=O)O)C(C)C | 103.145% |
| Cl.O=C(O)c1cc(-c2ccc(C3CCNCC3)cc2)c2ccc(-c3ccc(C(F)(F)F)cc3)cc2c1 | 98.0873% |
| C[C@@H]1CN(c2cc(-c3n[nH]c4ccc(OC5(C)CC5)cc34)ncn2)C[C@H](C)O1 [MLi-2] | 96.3526% |
| O=C(O)CNC(=O)c1c(O)c2ccccc2n(Cc2ccccc2)c1=O | 96.2966% |
| C=CC(=O)N1CCC[C@@H](n2nc(-c3ccc(Oc4ccccc4)cc3)c3c(N)ncnc32)C1 [IBRUTINIB] | 86.9807% |
| CC1(C)C(N)=Nc2cc(OCCCN3Cc4ccc(OCCc5cn(CC(=O)N6CCC(CCN7CCCC7)CC6)nn5)cc4C3)c(OCC3CC3)cc21 | 92.0303% |
| CC1(C)[C@H]2C[C@H](C/C=C\CCCC(=O)O)[C@@H](NC(=O)c3csc4ccc(O)cc34)[C@@H]1C2 | 100.906% |
| Cc1cc(OCCCS(C)(=O)=O)cc(C)c1-c1cccc(COc2ccc3c(c2)OC[C@H]3CC(=O)O)c1 | 101.968% |
| COc1ccc2c(c1)O[C@@H](c1ccc(OC)c(OC)c1)C[C@H]2NC(=O)C1(c2ccc3c(c2)OC(F)(F)O3)CC1 [A-1596586] | 101.385% |
| COc1ccc(CCc2nc3cc(-c4c(C)noc4C)ccc3n2C[C@H](C)N2CCOCC2)cc1Cl | 94.0053% |
| CC(C)C[C@@H]1NC(=O)[C@@H](C(C)C)NC(=O)[C@@H]2CCCN2C(=O)[C@@H](CC(=O)O)NC(=O)[C@@H](Cc2c[nH]c3ccccc23)NC1=O [BQ-123] (cyclo(L[dW][dD]P[dV])) | 98.787% |
| Cc1c(N2CCCC2)nc2ccc(Br)cc2c1C(=O)NC[C@H](CCC(=O)O)c1ccccc1Cl [BAY-6672] | 98.0293% |
| Nc1nc(NCc2ccccc2)nc(-c2ccccc2CO)n1 [Ogerin] | 100.729% |
| O=C(NCc1ccc(F)cc1)N1CCN2C(=O)OC(c3ccccc3)(c3ccccc3)C2C1 (centres undefined) | 104.95% |
| CCCS(=O)(=O)c1nc(NC2CC2)cc(-c2ccc3c(ccn3C3CC(C)(C)NC(C)(C)C3)c2)n1 | 24.107% |
| CN([C@@H]1CCc2c(CC(=O)O)c3ccccc3n2C1)S(=O)(=O)c1ccc(F)cc1 [MK-7246] | 96.8838% |
| Cc1cc(=O)n(C)c2cc(N3C(=O)CC[C@H](NS(=O)(=O)CC(C)C)[C@H]3c3ccc(Cl)cc3)ccc12 | 97.6321% |
| CCN(CCO)CCCOc1ccc2c(Nc3cc(CC(=O)Nc4cccc(F)c4)[nH]n3)ncnc2c1 [DEFOSBARASERTIB] | 100.387% |
| Cn1cnc2c(F)c(Nc3ccc(Br)cc3Cl)c(C(=O)NOCCO)cc21 [SELUMETINIB] | 92.6054% |
| c1cc(OCCCN2CCCCC2)ccc1CN1CCCCC1 [JNJ-5207852] | 101.482% |

| SMILES | Cell Viability |
| --- | --- |
| CN1C[C@H](Nc2cnn(C)c(=O)c2Br)C[C@H](c2ccccc2)C1 | 94.5817% |
| COc1cc(C(=O)N(CCCc2ccccc2)Cc2ccc(CC(=O)O)cc2)cc(OC)c1C | 101.167% |
| C[C@H](c1ccc(F)cc1)N(Cc1cccc(C(=O)O)c1)C(=O)c1cnc2ccccc2c1 [PF-05105679] | 99.1446% |
| CN1CCN(c2cnc3c(C4CCN(C(=O)c5ccc(OC(F)(F)F)cc5N)CC4)ncnc3c2)CC1 [BAY-885] | 96.4414% |
| Cc1ccc(Cn2nc(C(=O)N[C@@H]3C(C)(C)[C@@H]4CC[C@@]3(C)C4)cc2-c2ccc(Cl)c(C)c2)cc1 | 95.8945% |
| CCCc1cc(C)[nH]c(=O)c1CNC(=O)c1cc(-c2ccc(N3CCN(C(C)C)CC3)nc2)cc2c1cnn2C(C)C | 96.021% |
| Cc1[nH]cnc1CN1CCc2c(c3ccccc3n2C)C1=O [ALOSETRON] | 98.6661% |
| CNCc1ccccc1-c1csc([C@@H](C)Nc2nc(C)nc3cc(OC)c(OC)cc23)c1 [BAY-293] | 78.8725% |
| Cn1nc(C(F)(F)F)cc1-c1cnc(N2CCc3cc(S(=O)(=O)Nc4c(F)cc(Cl)cc4F)cc(N4CCCC4=O)c32)nc1 [TP-020] | 96.7008% |
| COc1ccncc1C(=O)NC(=O)Nc1ccc(-c2ccccc2)c(C(F)(F)F)c1 | 100.618% |
| COCc1nc2cnc3cc(-c4c(C)noc4C)c(OC[C@H]4CCNC4)cc3c2n1[C@H](C)c1ccccc1 [GSK778] | 95.4048% |
| COc1cc(-c2cn([C@H]3CCc4c(F)cccc4N(CC(F)(F)F)C3=O)nn2)ccc1-n1cnc(C)c1 | 98.1038% |
| COc1cc(OC)cc(-c2noc(N3CCN(C)C4(CCN(c5ccnc(C)c5)CC4)C3)n2)c1 | 97.1072% |
| Cc1c(C(=O)NN2CCCCC2)nn(-c2ccc(Cl)cc2Cl)c1-c1ccc(Cl)cc1 [RIMONABANT] | 99.45% |
| CC(=O)Nc1cccc(-n2c(=O)n(C3CC3)c(=O)c3c(Nc4ccc(I)cc4F)n(C)c(=O)c(C)c32)c1 [TRAMETINIB] | 85.5796% |
| CO[C@H]1CC[C@H](CNc2ccc(S(=O)(=O)NC(=O)c3ccc(N4CCN(CC5=C(c6ccc(Cl)cc6)CC(C)(C)CC5)CC4)cc3Oc3cnc4[nH]ccc4c3)cc2[N+](=O)[O-])CC1 [A-1211212] | 88.4422% |
| CCOC(=O)Nc1cc(-c2ccc(C)c(NS(C)(=O)=O)c2)nn2c(C)nnc12 | 84.5677% |
| COc1ccccc1C(=O)Nc1cc2c(cc1N1CCCC1)n(C)c(=O)n2C | 98.47% |
| COc1ccc(C(=O)N2CCN(C(=O)/C=C/c3ccc(Br)cc3)CC2)cc1 | 97.705% |
| CC(=O)Nc1c(F)cc(C(=O)N[C@H]2CC[C@H](O)CC2)cc1O[C@@H](C)c1ccccc1 [GSK046] | 96.5866% |
| CN(C)C(=O)c1ccc(-c2cc(C(=O)N[C@@H]3CCc4ccccc43)no2)cc1O | 97.9607% |

| SMILES | Cell Viability |
| --- | --- |
| COc1cc2c(cc1NS(=O)(=O)c1ccc(Br)cc1C)n(C)c(=O)n2C | 96.0295% |
| Cn1cc(-c2ccc3occ(-c4cccc(-c5ccncc5)c4)c3n2)cn1 | 101.775% |
| O=C(O)Cc1ccccc1Nc1c(Cl)cccc1Cl [DICLOFENAC] | 103.39% |
| O=C(NCCCN1CCOC1=O)c1cnc(NCc2cc(Br)ccc2Br)nc1NC1CCCC1 | 100.266% |
| Cl.Clc1ccc2nsnc2c1NC1=NCCN1 [TIZANIDINE HYDROCHLORIDE] | 103.384% |
| O=C(c1ccc(C(=O)N2CCC(N3CCCC3)CC2)c(Nc2ccccc2)c1)N1CCC(N2CCCC2)CC1 | 93.0388% |
| O=C1c2ccc(Nc3ccc(F)cc3F)cc2CCc2ccc(OC[C@H](O)CO)cc21 [Skepinone-L] | 96.8594% |
| CCC(=O)N1CCOc2c(cc(-c3ccc(OC)c(OC)c3)cc2OCC2CCCN(C)C2)C1 (centres undefined) | 98.9735% |
| COc1ccccc1C(=O)Nc1cc2c(cc1N1CCNCC1C)n(C)c(=O)n2C (centres undefined) | 98.4804% |
| Cc1cc(-n2nc(Cc3cc(F)cc(C(F)(F)F)c3)nc2C)ccc1C(N)=O [TP-024] | 100.697% |
| Cc1c(NC(=O)c2cc(C(N)=O)nc3cc(F)ccc23)c(C(F)(F)F)nn1Cc1ccc(C#N)cc1 [BAY-876] | 101.62% |
| CCC(=O)Nc1cc(Nc2cc(NC3CC3)n3ncc(C#N)c3n2)ccc1C | 88.1167% |
| CN1CCN(c2ccc(-c3cccc(CN4CCOCC4)c3)cc2NC(=O)c2c[nH]c(=O)cc2C(F)(F)F)CC1 | 99.6552% |
| O=C(/C=C/N1C[C@H]2C[C@@H]1CN2c1ccccn1)c1ccccc1O | 91.7355% |
| CCOc1ccc(C[C@H]2NC(=O)CCSSC[C@@H](C(=O)N3CCC[C@H]3C(=O)N[C@@H](CCCN)C(=O)NCC(N)=O)NC(=O)[C@H](CC(N)=O)NC(=O)[C@H]([C@@H](C)O)NC(=O)[C@H]([C@@H](C)CC)NC2=O)cc1 [ATOSIBAN] ([Mpa][dY](Et)ITNCP[Orn]G-NH2; disulfide 1-6) | 101.789% |
| CCNC1(C(N)=O)CCN(c2ncnc3c2nc(-c2ccccc2Cl)n3-c2ccc(Cl)cc2)CC1 [OTENABANT] | 101.882% |
| Clc1cccc(-c2nnnn2Cc2cccnc2)c1Cl | 97.1983% |
| CCc1nc2c(C)cc(C)nc2[nH]1 | 100.659% |
| CC(C)N(CCCCOCC(=O)NS(C)(=O)=O)c1cnc(-c2ccccc2)c(-c2ccccc2)n1 [SELEXIPAG] | 99.3334% |
| C[C@]12N[C@H](Cc3ccccc31)c1ccccc12 [DIZOCILPINE] | 102.296% |
| NS(=O)(=O)c1cc(NC(=O)Cc2ccccc2)ccc1Oc1cccc(Cl)c1 [BAY-1797] | 95.6935% |

same assay, conditions: human, 2 µM

| SMILES | Cell Viability |
| --- | --- |
| CS(=O)(=O)c1cc(C2(NC(=O)c3cncc4c3cnn4-c3ccc(F)cc3)CC2)ccn1 [BI 639667] | 99.2983% |

From ChEMBL document CHEMBL5724562, “Toxicity screen in isolated B cell assay results for EUbOPEN Chemogenomics Library” (2024)
